Tests used:
CF (RR -1) = assay: MIC determination; format: cell-based, Citrobacter freundii; details: CAMH broth, 20 μM Apo-Transferrin, 37° C., 18 hours
Protocol: (§1) Sterile technique was used throughout these experiments. Suspensions of organisms were removed from storage (−80° C.) and partially thawed. Partially thawed organisms (1 μL) were inoculated into 3 mL sterile LB Broth in a sterile culture tube and capped, then cultured at 37° C. with shaking for 4-5 hours until the optical density at 600 nm (OD600) was greater than 0.1 on a single beam spectrophotometer.
(§2) The concentration of organisms was adjusted to 0.08-0.1 OD600 (0.5 McFarland units) by dilution with sterile cation-adjusted Meuller-Hinton (CAMH) broth. The suspensions were used within 30 minutes of preparation.
(§3) A stock solution was made of each test compound by measuring 6.4 mg of the compound on an analytical balance and dissolving it in DMSO (1 mL) to get a transparent solution. The solutions were stored at −20° C. and thawed prior to use.
(§4) Sterile CAMH broth (200 μL) containing 20 μM Apo-Transferrin was pipetted into the first row of 8 columns of a sterile, round-bottomed, transparent, 96-well microplate using an 8-channel pipette equipped with sterile tips. One hundred μL was pipetted into the wells of the remaining 11 rows.
(§5) With an 8-channel pipette equipped with sterile tips, 100 μL of the first row solution was transferred to the second row and mixed. The process was repeated for the second to third rows and continued through row 11. One hundred μL from row 11 was removed and discarded so that all 12 rows contained 100 μL. Row 12 contained no compound and rows 1-11 contained 64, 32, 16, 8, 4, 2, 1, 0.5, 0.25, 0.125, […] of a given compound.
(§6) Inoculant suspensions (0.5 μL) were added to the 12 wells of each column. The plates were then covered and incubated at 37° C. overnight for 18 hours.
(§7) For each organism the MIC was determined by identifying the transparent well with the lowest test compound concentration.

EC(KB1 CTX-M-14) = assay: MIC determination; format: cell-based, Escherichia coli
Summary of the method: (§8)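 Using an iron-depleting medium (CAMH plus 20 μM apo-transferrin), organisms at 0.5 McFarland faced compound from 64 μg/mL downward in twofold steps. Readout: visual, after 18 h at 37 °C.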

EC(KB2 CTX-M-14) = assay: MIC determination; format: cell-based, Escherichia coli
Summary of the method: as §8

KP(ATCC SHV-18) = assay: MIC determination; format: cell-based, Klebsiella pneumoniae; details: CAMH broth, 20 μM Apo-Transferrin, 37° C., 18 hours
Summary of the method: as §8

PM (Proteus mirabilis) = assay: MIC determination; format: cell-based; details: CAMH broth, 20 μM Apo-Transferrin, 37° C., 18 hours
Summary of the method: as §8

EC (Escherichia coli) = assay: MIC determination; format: cell-based; details: 20 μM Apo-Transferrin, 37° C., 18 hours
Summary of the method: as §8

SM (Serratia marcescens) = assay: MIC determination; format: cell-based; details: CAMH broth, 20 μM Apo-Transferrin, 37° C., 18 hours
Summary of the method: as §8

[1] = test system: KP (Klebsiella pneumoniae); assay: MIC determination; format: cell-based; details: 20 μM Apo-Transferrin, 37° C., 18 hours
Summary of the method: as §8

[2] = test system: ENC (Enterobacter cloacae); assay: MIC determination; format: cell-based; details: CAMH broth, 20 μM Apo-Transferrin, 37° C., 18 hours
Summary of the method: as §8

[3] = test system: CF (Citrobacter freundii); assay: MIC determination; format: cell-based; details: CAMH broth, 20 μM Apo-Transferrin, 37° C., 18 hours
Summary of the method: as §8

[4] = test system: KOXY (Klebsiella oxytoca); assay: MIC determination; format: cell-based; details: CAMH broth, 20 μM Apo-Transferrin, 37° C., 18 hours
Summary of the method: as §8

[5] = test system: both Acinetobacter baumannii strains tested; assay: MIC determination, summary in text; format: cell-based; details: review of Table 2
Protocol: as §1, §2, §3, §4
With an 8-channel pipette equipped with sterile tips, 100 μL of the first row solution was transferred to the second row and mixed. […]
as §7

[6] = test system: A. baumannii (JMI OXA-58); assay: MIC determination; format: cell-based, Acinetobacter baumannii; details: class D carbapenemase producer, CAMH broth, 20 μM Apo-Transferrin, 37° C., 18 hours
Protocol: as §1, §2, §3, §4, §5, §6, §7

A. baumannii = assay: MIC determination; format: cell-based, Acinetobacter baumannii
Protocol: as §1, §2, §3, §4, §5, §6, §7

[7] = test system: various Pseudomonas strains; assay: MIC determination, summary in text; format: cell-based, Pseudomonas aeruginosa; details: review of Tables 1-1 and 1-2
Protocol: as §1, §2, §3, §4, §5, §6, §7

PM (RR -1) = assay: MIC determination; format: cell-based, Proteus mirabilis; details: CAMH broth, 20 μM Apo-Transferrin, 37° C., 18 hours
Protocol: as §1, §2, §3, §4, §5, §6, §7

various enteric bacteria = assay: MIC determination, summary in text; format: cell-based; details: review of Tables 3-1 to 3-6
Protocol: as §1, §2, §3, §4
To each well of the first row was pipetted 2.0 μL of the 6.4 mg/mL stock test compound stock solution to give 1:100 dilutions and a final concentration of 64 μg/mL and mixed.
as §5, §6, §7

[8] = first KP column of Table 3-1, CAMH broth
[9] = second KP column of Table 3-1, CAMH broth

CC(C)(O/N=C(\C(=O)N[C@@H]1C(=O)N2C(C(=O)O)=C(C=Cc3ccc(C[N+]4(C)CCc5cc(O)c(O)cc5C4)cc3)CS[C@H]12)c1csc(N)n1)C(=O)O (mixture of isomers) [Compound 407, 2-(4-((E/Z)-2-((6R,7R)-7-((Z)-2-(2-aminothiazol-4-yl)-2-(((2-carboxypropan-2-yl)oxy)imino)acetamido)-2-carboxy-8-oxo-5-thia-1-azabicyclo[4.2.0]oct-2-en-3 yl)vinyl)benzyl)-6,7-dihydroxy-2-methyl-1,2,3,4-tetrahydroisoquinolin-2-ium]
Mimimum Inhibitory Concentrations, CF (RR -1) (CF (RR -1)): 0.13 microgram/mL | MIC (EC(KB1 CTX-M-14); Escherichia coli, 18 h, read-out: Minimum Inhibitory Concentrations, EC(KB1 CTX-M-14)): 2 µg/mL | MIC (EC(KB2 CTX-M-14); Escherichia coli, 18 h, read-out: Minimum Inhibitory Concentrations, EC(KB2 CTX-M-14)): 64 µg/mL | Minimum Inhibitory Concentrations, KP(ATCC SHV-18) (KP(ATCC SHV-18)): 2 microgram/mL | MIC (PM (Proteus mirabilis); Proteus mirabilis, read-out: Minimum Inhibitory Concentrations, PM): ≤ 0.06 µg/mL | MIC (EC (Escherichia coli); Escherichia coli, first EC column of Table 3-1, CAMH broth, read-out: Minimum Inhibitory Concentrations, EC): 0.25 µg/mL | Minimum Inhibitory Concentrations, EC (EC (Escherichia coli); Table 3-1, CAMH broth): 0.25 microgram/mL | MIC (SM (Serratia marcescens); Serratia marcescens, read-out: Minimum Inhibitory Concentrations, SM): 0.25 µg/mL | Minimum Inhibitory Concentrations, KP [1, 8]: 0.25 microgram/mL | Minimum Inhibitory Concentrations, KP [1, 9]: 0.25 microgram/mL | Mimimum Inhibitory Concentrations, ENC [2]: 4 microgram/mL | MIC ([3]; Citrobacter freundii, read-out: Minimum Inhibitory Concentrations, CF): ≤ 0.06 µg/mL | MIC ([4]; Klebsiella oxytoca, read-out: Minimum Inhibitory Concentrations, KOXY): 1 µg/mL | MICs for both Acinetobacter baumannii strains tested, in words [5]: lower microgram/mL MICs | MIC ([6]; Acinetobacter baumannii, read-out: Minimum Inhibitory Concentrations, A. baumannii (JMI OXA-58)): 16 µg/mL | MIC (A. baumannii; Acinetobacter baumannii, A. baumannii, CAMH broth, 20 μM Apo-Transferrin, 37° C., 18 hours, read-out: Minimum Inhibitory Concentrations, A. baumannii): 2 µg/mL | MICs for various Pseudomonas strains, in words [7]: low microgram/mL MICs | Mimimum Inhibitory Concentrations, PM (RR -1) (PM (RR -1)): ≤0.06 microgram/mL

CC(C)(O/N=C(\C(=O)N[C@@H]1C(=O)N2C(C(=O)O)=C(C=Cc3ccc(C[n+]4ccc5cc(O)c(O)cc5c4)cc3)CS[C@H]12)c1csc(N)n1)C(=O)O (mixture of isomers) [Compound 435, 2-(4-((E/Z)-2-((6R,7R)-7-((Z)-2-(2-aminothiazol-4-yl)-2-(((2-carboxypropan-2-yl)oxy)imino)acetamido)-2-carboxy-8-oxo-5-thia-1-azabicyclo[4.2.0]oct-2-en-3-yl)vinyl)benzyl)-6,7-dihydroxyisoquinolin-2-ium]
Mimimum Inhibitory Concentrations, CF (RR -1) (CF (RR -1)): ≤0.06 microgram/mL | MICs for various enteric bacteria, in words (various enteric bacteria): low microgram/mL MICs | Minimum Inhibitory Concentrations, EC(KB1 CTX-M-14) (EC(KB1 CTX-M-14); EC(KB1 CTX-M-14), CAMH broth, 20 μM Apo-Transferrin, 37° C., 18 hours): ≤0.06 microgram/mL | Minimum Inhibitory Concentrations, EC(KB2 CTX-M-14) (EC(KB2 CTX-M-14); EC(KB2 CTX-M-14), CAMH broth, 20 μM Apo-Transferrin, 37° C., 18 hours): ≤0.06 microgram/mL | Minimum Inhibitory Concentrations, KP(ATCC SHV-18) (KP(ATCC SHV-18)): 0.25 microgram/mL | Minimum Inhibitory Concentrations, PM (PM (Proteus mirabilis)): ≤0.06 microgram/mL | Minimum Inhibitory Concentrations, EC (EC (Escherichia coli); Table 3-1, CAMH broth): ≤0.06 microgram/mL | Minimum Inhibitory Concentrations, EC (EC (Escherichia coli); first EC column of Table 3-1, CAMH broth): ≤0.06 microgram/mL | Minimum Inhibitory Concentrations, SM (SM (Serratia marcescens)): 0.25 microgram/mL | Minimum Inhibitory Concentrations, KP [1, 8]: ≤0.06 microgram/mL | Minimum Inhibitory Concentrations, KP [1, 9]: ≤0.06 microgram/mL | Mimimum Inhibitory Concentrations, ENC [2]: 16 microgram/mL | Minimum Inhibitory Concentrations, CF [3]: ≤0.06 microgram/mL | Minimum Inhibitory Concentrations, KOXY [4]: ≤0.06 microgram/mL | Minimum Inhibitory Concentrations, A. baumannii (JMI OXA-58) [6]: >64 microgram/mL | Minimum Inhibitory Concentrations, A. baumannii (A. baumannii; A. baumannii, CAMH broth, 20 μM Apo-Transferrin, 37° C., 18 hours): 1 microgram/mL | MICs for an Acinetobacter baumannii strain, in words (A. baumannii; review of Table 2): low microgram/mL MICs | MICs for various Pseudomonas strains, in words [7]: low microgram/mL MICs | Mimimum Inhibitory Concentrations, PM (RR -1) (PM (RR -1)): ≤0.06 microgram/mL

From US20190100534A1, “Cephem Compounds with Latent Reactive Groups” (Gladius Pharmaceuticals, Inc., priority 2017, published 2019)
